According to patent US20250230193A1, “CYCLIC COMPOUND HAVING SELECTIVE KRAS INHIBITORY EFFECT ON HRAS AND NRAS” (CHUGAI SEIYAKU KABUSHIKI KAISHA, priority 2022, published 2025):
Where a SMILES comes first, the peptide text is derived from it. Bridges are numbered along the chain shown (N, C = ends). [ ]: non-standard residue; d: D form. The star is where a group is joined. hPhe(3,5-F2-4-CF3) = N[C@@H](CCc1cc(F)c(C(F)(F)F)c(F)c1)C(=O)O; NPrPhe(4-CF3) = CCCN[C@@H](Cc1ccc(C(F)(F)F)cc1)C(=O)O; NMeGly(cPent) = CN[C@H](C(=O)O)C1CCCC1; αMeF = C[C@](N)(Cc1ccccc1)C(=O)O; NMeD = CN[C@@H](CC(=O)O)C(=O)O; NMeL = CN[C@@H](CC(C)C)C(=O)O; Morpholide = C1CN(*)CCO1; Aze = O=C(O)[C@@H]1CCN1; Sar = CNCC(=O)O

Assays:
[1] = molecular target: GDP-bound HRAS wild-type protein (Homo sapiens, UniProt P01112); assay: Binding to HRAS by surface plasmon resonance (SPR), Single Cycle Kinetics
[2] = molecular target: GDP-bound NRAS wild-type protein (Homo sapiens, UniProt P01111); assay: Binding to NRAS by surface plasmon resonance (SPR), Single Cycle Kinetics
[3] = SPR, GDP-bound HRAS wild-type vs GDP-bound KRAS wild-type
[4] = SPR, GDP-bound NRAS wild-type vs GDP-bound KRAS wild-type

Sequence of GDP-bound NRAS wild-type protein (P01111 whole entry): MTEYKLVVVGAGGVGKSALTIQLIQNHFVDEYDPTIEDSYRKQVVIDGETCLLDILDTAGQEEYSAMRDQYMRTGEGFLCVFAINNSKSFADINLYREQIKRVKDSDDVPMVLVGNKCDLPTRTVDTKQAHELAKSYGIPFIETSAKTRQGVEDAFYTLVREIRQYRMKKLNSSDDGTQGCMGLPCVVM
Sequence of GDP-bound HRAS wild-type protein (P01112 whole entry): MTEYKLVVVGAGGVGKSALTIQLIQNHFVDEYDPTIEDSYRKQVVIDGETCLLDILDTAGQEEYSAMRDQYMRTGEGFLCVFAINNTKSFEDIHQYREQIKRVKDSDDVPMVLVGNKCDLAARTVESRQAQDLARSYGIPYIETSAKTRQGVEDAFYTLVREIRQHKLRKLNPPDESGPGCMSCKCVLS

CCO[C@@H]1C[C@H]2C(=O)NC3(CCC3)C(=O)N(C)[C@@H](C3CCCC3)C(=O)N(C)[C@H](C(=O)N(C)CCOC)CC(=O)N(C)[C@@H](CC3CC3)C(=O)N[C@@H]([C@@H](C)CC)C(=O)N(C)CC(=O)N(C)[C@H]3C/C=C\CCN(C3=O)[C@@H](Cc3ccc(C(F)(F)F)cc3)C(=O)N(C)CC(=O)N[C@@H](CCc3ccc(C(F)(F)F)c(OC)c3)C(=O)N2C1 [PP1327]
HRAS/KRAS (ratio of KD value for GDP-bound HRAS wild-type protein to KD value for KRAS) ([1]; SPR, KD ratio class): A (a compound having 10 or more and less than 20 is denoted as A)
NRAS/KRAS (ratio of KD value for GDP-bound NRAS wild-type protein to KD value for KRAS) ([2]; SPR, KD ratio class): A (a compound having 10 or more and less than 20 is denoted as A)

CCCN1C(=O)CN(C)C(=O)[C@@H]2CCN2C(=O)[C@H]([C@@H](C)CC)NC(=O)[C@H](CC(C)C)N(C)C(=O)C[C@@H](C(=O)N2CCOCC2)N(C)C(=O)[C@H](C2CCCC2)N(C)C(=O)[C@](C)(Cc2ccccc2)NC(=O)[C@@H]2CCCN2C(=O)[C@H](CCc2cc(F)c(C(F)(F)F)c(F)c2)NC(=O)CN(C)C(=O)[C@@H]1Cc1ccc(C(F)(F)F)cc1 [PP0778] ([NMeL]I[Aze][Sar][NPrPhe(4-CF3)][Sar][hPhe(3,5-F2-4-CF3)]P[αMeF][NMeGly(cPent)][NMeD]-Morpholide; lactam N-11)
HRAS/KRAS (ratio of KD value with respect to GDP-bound HRAS wild-type protein to KD value with respect to KRAS) ([1]; SPR): B (a compound having 3 or more and less than 10 is denoted as B)
NRAS/KRAS (ratio of KD value with respect to GDP-bound NRAS wild-type protein to KD value with respect to KRAS) ([2]; SPR): B (a compound having 3 or more and less than 10 is denoted as B)

CCCOC[C@H]1C(=O)N[C@@H]([C@@H](C)CC)C(=O)N(C2CC2)CC(=O)N(C)[C@H]2C/C=C\CCN(C2=O)[C@@H](Cc2ccc(C)cc2)C(=O)N(C)CC(=O)N[C@@H](CCc2ccc(C(F)(F)F)c(OC)c2)C(=O)N2C[C@@H](C)C[C@H]2C(=O)N(C)C2(CCC2)C(=O)N(C)[C@@H](C2CCCC2)C(=O)N(C)[C@H](C(=O)N(C)C)CC(=O)N1C [PP2367]
HRAS/KRAS (ratio of KD value with respect to HRAS to KD value with respect to KRAS) [1, 3]: B (a compound having 3 or more and less than 10 is denoted as B)
NRAS/KRAS (ratio of KD value with respect to NRAS to KD value with respect to KRAS) [2, 4]: A (a compound having 10 or more and less than 20 is denoted as A)

CC[C@H](C)[C@@H]1NC(=O)[C@H](COC)N(C)C(=O)C[C@@H](C(=O)N(C)C)N(C)C(=O)[C@H](C2CCCC2)N(C)C(=O)C2(CC(C)(C)C2)NC(=O)[C@@H]2C[C@@H](OC3CCC3)CN2C(=O)[C@H](CCc2cc(F)c(C(F)(F)F)c(F)c2)NC(=O)CN(C)C(=O)[C@H](CC2CCC(F)(F)CC2)N2CC/C=C\C[C@@H](C2=O)N(C)C(=O)CN(C2CC2)C1=O [PP2622]
HRAS/KRAS (ratio of KD value with respect to GDP-bound HRAS wild-type protein to KD value with respect to KRAS) ([1]; class symbols): B (a compound having 3 or more and less than 10 is denoted as B)
NRAS/KRAS (ratio of KD value with respect to GDP-bound NRAS wild-type protein to KD value with respect to KRAS) ([2]; class symbols): A (a compound having 10 or more and less than 20 is denoted as A)

CCO[C@@H]1C[C@H]2C(=O)NC3(CC(C)(C)C3)C(=O)N(C)[C@@H](C(CC)CC)C(=O)N(C)[C@H](C(=O)N(C)C)CC(=O)N(C)[C@@H](C(C)C)C(=O)N[C@@H]([C@@H](C)CC)C(=O)N(C)CC(=O)N(C)[C@H]3C/C=C\CCN(C3=O)[C@@H](CC3CCC(F)(F)CC3)C(=O)N(C)CC(=O)N[C@@H](CCc3ccc(C(F)(F)F)c(OC)c3)C(=O)N2C1 [PP2477]
HRAS/KRAS (ratio of KD value with respect to HRAS to KD value with respect to KRAS) [1, 3]: A (a compound having 10 or more and less than 20 is denoted as A)
NRAS/KRAS (ratio of KD value with respect to NRAS to KD value with respect to KRAS) [2, 4]: A (a compound having 10 or more and less than 20 is denoted as A)

CC[C@H](C)[C@@H]1NC(=O)[C@H](CC)N(C)C(=O)C[C@@H](C(=O)N(C)C)N(C)C(=O)[C@H](C2CCCC2)N(C)C(=O)C2(CC(C)(C)C2)NC(=O)[C@H](CC)N(C)C(=O)[C@H](CCc2cc(F)c(C(F)(F)F)c(F)c2)NC(=O)CN(C)C(=O)[C@H](Cc2ccc(C(F)(F)F)cc2)N2CC/C=C\C[C@@H](C2=O)N(C)C(=O)CN(C)C1=O [PP1935]
HRAS/KRAS (ratio of KD value for HRAS to KD value for KRAS) ([1]; KD ratio, GDP-bound HRAS wild-type vs GDP-bound KRAS wild-type, SPR): A (a compound having 10 or more and less than 20 is denoted as A)
NRAS/KRAS (ratio of KD value for NRAS to KD value for KRAS) ([2]; KD ratio, GDP-bound NRAS wild-type vs GDP-bound KRAS wild-type, SPR): A (a compound having 10 or more and less than 20 is denoted as A)

CC[C@H](C)[C@@H]1NC(=O)[C@H](COC)N(C)C(=O)C[C@@H](C(=O)N(C)C)N(C)C(=O)[C@H](C2CCCCC2)N(C)C(=O)C2(CC(C)(C)C2)NC(=O)[C@@H]2C[C@@H](OC3CCC3)CN2C(=O)[C@H](CCc2cc(F)c(C(F)(F)F)c(F)c2)NC(=O)CN(C)C(=O)[C@H](Cc2ccc(C(F)(F)F)cc2)N2CC/C=C\C[C@@H](C2=O)N(C)C(=O)CN(C)C1=O [PP2655]
HRAS/KRAS (ratio of KD value with respect to GDP-bound HRAS wild-type protein to KD value with respect to KRAS) ([1]; class symbols): A (a compound having 10 or more and less than 20 is denoted as A)
NRAS/KRAS (ratio of KD value with respect to GDP-bound NRAS wild-type protein to KD value with respect to KRAS) ([2]; class symbols): AA (a compound having 20 or more is denoted as AA)
